From patent publication US5264430A, “2-spirocyclopropyl cephalosporin sulfone derivatives” (SynPhar Laboratories, Inc., priority 1991, dated 1993) come the findings set out here.

One may read the IC50 as the concentration that gives 50% inhibition.

Experiment [1] concerns the target T1, cathepsin C (Bos taurus, UniProt Q3ZCJ8).
T1 construct: Purified cathepsin C from bovine spleen; from tissue; host or cells: bovine spleen
The experiment in a line: Selectivity against various proteases: cathepsin C (CTC). Format: biochemical, bovine.
Method: Enzyme: Purified cathepsin C from bovine spleen
Substrate: Glycyl-L-phenylalanine-pNA
50 mM Citrate buffer (pH 5.4)
Inhibition of enzymes by the compounds described were determined after a 10 minute preincubation with enzymes in reaction mixtures minus substrate. Reactions were initiated by the addition of substrates. […] All other proteases were assayed at the concentrations that produced approximately 0.1 O.D. change per minute at 410 nm under the standard conditions.

In experiment [2] the target is T2, cathepsin D (Bos taurus, UniProt P80209).
T2 construct: Purified cathepsin D from bovine spleen; from tissue; host or cells: bovine spleen
T2 sequence (P80209 45-390): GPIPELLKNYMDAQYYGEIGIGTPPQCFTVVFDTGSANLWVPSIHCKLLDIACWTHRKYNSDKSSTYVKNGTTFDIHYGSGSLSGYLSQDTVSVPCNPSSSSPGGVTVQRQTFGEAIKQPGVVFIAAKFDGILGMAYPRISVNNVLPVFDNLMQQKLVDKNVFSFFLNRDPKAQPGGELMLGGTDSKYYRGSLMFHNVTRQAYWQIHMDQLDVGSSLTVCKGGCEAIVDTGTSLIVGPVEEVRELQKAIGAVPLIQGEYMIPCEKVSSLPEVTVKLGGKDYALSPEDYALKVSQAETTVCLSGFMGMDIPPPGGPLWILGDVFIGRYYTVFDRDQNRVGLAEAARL
The experiment in a line: Selectivity against various proteases: cathepsin D (CTD). It is filed as biochemical, bovine.
Method: Enzyme: Purified cathepsin D from bovine spleen
Substrate: Hemoglobin (bovine)
250 mM Glycine buffer (pH 3.2)

In experiment [3] the target is T3, aminopeptidase M (Sus scrofa, UniProt P15145).
T3 construct: Purified aminopeptidase M from porcine kidney; from tissue; host or cells: porcine kidney
T3 sequence (P15145 1-963): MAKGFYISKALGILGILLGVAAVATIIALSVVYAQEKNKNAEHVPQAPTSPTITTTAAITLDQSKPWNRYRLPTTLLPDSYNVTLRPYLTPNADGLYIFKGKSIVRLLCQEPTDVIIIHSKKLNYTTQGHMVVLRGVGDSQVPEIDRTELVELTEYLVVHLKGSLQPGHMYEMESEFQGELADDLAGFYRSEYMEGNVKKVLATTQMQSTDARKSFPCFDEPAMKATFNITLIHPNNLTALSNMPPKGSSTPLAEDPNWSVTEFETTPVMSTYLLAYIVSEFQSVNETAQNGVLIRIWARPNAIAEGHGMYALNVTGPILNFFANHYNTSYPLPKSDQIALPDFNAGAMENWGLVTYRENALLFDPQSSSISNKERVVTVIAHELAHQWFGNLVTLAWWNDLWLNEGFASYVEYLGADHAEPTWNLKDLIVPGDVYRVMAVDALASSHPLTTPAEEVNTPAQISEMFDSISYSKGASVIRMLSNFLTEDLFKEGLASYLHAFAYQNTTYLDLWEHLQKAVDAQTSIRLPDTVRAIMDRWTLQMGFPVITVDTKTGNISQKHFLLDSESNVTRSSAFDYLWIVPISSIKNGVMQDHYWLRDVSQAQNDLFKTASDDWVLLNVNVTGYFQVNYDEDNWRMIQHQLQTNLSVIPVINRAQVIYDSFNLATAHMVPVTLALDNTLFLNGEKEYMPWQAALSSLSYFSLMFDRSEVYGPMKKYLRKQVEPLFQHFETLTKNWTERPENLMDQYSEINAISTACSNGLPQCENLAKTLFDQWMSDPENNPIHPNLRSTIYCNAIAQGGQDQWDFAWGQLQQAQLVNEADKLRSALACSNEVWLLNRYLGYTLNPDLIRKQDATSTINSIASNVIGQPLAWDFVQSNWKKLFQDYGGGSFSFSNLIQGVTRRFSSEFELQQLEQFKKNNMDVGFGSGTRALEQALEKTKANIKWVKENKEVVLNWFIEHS
The experiment in a line: Selectivity against various proteases: aminopeptidase M (APM). It is filed as biochemical, porcine.
Method: Enzyme: Purified aminopeptidase M from porcine kidney
50 mM Tricine buffer (pH 7.5)

Experiment [4] concerns the target T4, thrombin (Homo sapiens, UniProt P00734).
T4 construct: Purified thrombin from human plasma; from tissue; host or cells: human plasma
The experiment in a line: Selectivity against various proteases: thrombin (THR). Conditions: human plasma, pH 8.6, 22° C., 10 minute preincubation. Format: biochemical. As for the experimental part: TRY = trypsin, THR = thrombin, PLM = plasmin, CTC = cathepsin C, APM =
Enzyme: Purified thrombin from human plasma
Substrate: Tosyl-glycyl-L-prolyl-L-arginine-p-NA acetate
50 mM Tricine-NaOH buffer (PH 8.6)
(§1) Except for Cathepsin D, the enzyme activities were determined by monitoring the increase in absorbance at 410 nm caused by the hydrolysis of chromogenic substrates. The activity of Cathepsin D was determined by monitoring the absorbance of 5% trichloroacetic acid-soluble material at 280 nm.
(§2) Inhibition of enzymes by the compounds described were determined after a 10 minute preincubation with enzymes in reaction mixtures minus substrate. Reactions were initiated by the addition of substrates. The concentration used for assays were porcine pancreatic elastase at 240 nM and human Cathepsin G at 50 nM. Cathepsin D was used at the concentration that produced approximately 0.15 O.D. increase per 20 min at 280 nm under the standard conditions. All other proteases were assayed at the concentrations that produced approximately 0.1 O.D. change per minute at 410 nm under the standard conditions.

Experiment [5] deals with T5, trypsin (Bos taurus, UniProt P00760).
T5 construct: Purified trypsin from bovine pancreas; from tissue; host or cells: bovine pancreas
T5 sequence (P00760 24-246): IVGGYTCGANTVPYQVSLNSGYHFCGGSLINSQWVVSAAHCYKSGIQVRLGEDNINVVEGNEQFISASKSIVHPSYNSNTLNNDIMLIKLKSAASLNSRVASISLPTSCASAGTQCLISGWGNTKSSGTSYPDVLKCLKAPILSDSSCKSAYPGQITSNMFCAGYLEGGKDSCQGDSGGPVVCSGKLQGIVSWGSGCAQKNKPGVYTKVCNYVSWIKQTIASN
The experiment in a line: Selectivity against various proteases: trypsin (TRY). Format: biochemical, bovine.
Method: Enzyme: Purified trypsin from bovine pancreas
Substrate: Bz-L-arginine-p-NA
50 mM Tricine[N-Tris(hydroxymethyl)methylglycine]-NaOH buffer (pH 8.8) 150 mM NaCl

Experiment [6] has as its target T6, porcine pancreatic elastase (Sus scrofa, UniProt P00772).
T6 construct: Purified elastase from porcine pancreas; from tissue; host or cells: porcine pancreas
The experiment in a line: Selectivity against various proteases: porcine pancreatic elastase (PPE). It is filed as biochemical. Here is the method:
Porcine Pancreatic Elastase (PPE)
Enzyme: Purified elastase from porcine pancreas
Substrate: MeO-succinyl-L-alanyl-L-alanyl-L-prolyl-L-valine-pNA
50 mM Tris[Tris(hydroxymethyl) aminomethane]. HCl buffer (pH 8.9)
as §1
Inhibition of enzymes by the compounds described were determined after a 10 minute preincubation with enzymes in reaction mixtures minus substrate. Reactions were initiated by the addition of substrates. […] Cathepsin D was used at the concentration that produced approximately 0.15 O.D. increase per 20 min at 280 nm under the standard conditions. All other proteases were assayed at the concentrations that produced approximately 0.1 O.D. change per minute at 410 nm under the standard conditions.

Experiment [7] addresses T7, cathepsin G (Homo sapiens, UniProt P08311).
T7 construct: Purified Cathepsin G from human white blood cells; from tissue; host or cells: human white blood cells
T7 sequence (P08311 21-244 limits assumed): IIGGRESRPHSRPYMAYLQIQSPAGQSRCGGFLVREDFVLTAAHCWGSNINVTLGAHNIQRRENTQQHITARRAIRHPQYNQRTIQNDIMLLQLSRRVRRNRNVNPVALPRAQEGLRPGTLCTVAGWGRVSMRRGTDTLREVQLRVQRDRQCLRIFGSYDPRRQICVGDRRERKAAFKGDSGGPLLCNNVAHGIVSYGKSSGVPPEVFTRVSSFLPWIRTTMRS
The experiment in a line: Selectivity against various proteases: cathepsin G (CTG). Format: biochemical. Conditions: cathepsin G 50 nM, human white blood cells, pH 7.5, 30° C., 10 minute preincubation. As for the experimental part: as §2, with “Reaction mixture: […] 500 mM NaCl […] 2.0 mM Substrate Except for Cathepsin D, the enzyme activities were determined by monitoring the increase in absorbance at 410 nm caused by the hydrolysis of chromogenic substrates. The activity of Cathepsin D was determined by monitoring the absorbance of 5% trichloroacetic acid-soluble material at 280 nm. Inhibition” for “Inhibition”

Where [8] appears, read: cathepsin D, bovine spleen, pH 3.2, 30° C., 10 minute preincubation, read-out: CTD IC50 (converted).
The mark [9] stands for this setting: trypsin, bovine pancreas, pH 8.8, 22° C., 10 minute preincubation, read-out: TRY IC50 (converted).
[10] abbreviates: cathepsin C, bovine spleen, pH 5.4, 22° C., 10 minute preincubation, read-out: CTC IC50 (converted).
Where [11] appears, read: aminopeptidase M, porcine kidney, pH 7.5, 22° C., 10 minute preincubation, read-out: APM IC50 (converted).

Read-outs that look alike come from different tables or passages of the source.

T1 sequence (Q3ZCJ8 231-394 limits assumed): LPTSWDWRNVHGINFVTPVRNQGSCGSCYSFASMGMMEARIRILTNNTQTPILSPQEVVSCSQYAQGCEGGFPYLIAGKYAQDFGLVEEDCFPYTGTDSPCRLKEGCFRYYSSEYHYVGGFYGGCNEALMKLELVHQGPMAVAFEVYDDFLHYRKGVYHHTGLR
T1 sequence (Q3ZCJ8 395-463 limits assumed): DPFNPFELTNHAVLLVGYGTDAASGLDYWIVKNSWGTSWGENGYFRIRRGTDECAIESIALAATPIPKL
T1 sequence (Q3ZCJ8 25-134 limits assumed): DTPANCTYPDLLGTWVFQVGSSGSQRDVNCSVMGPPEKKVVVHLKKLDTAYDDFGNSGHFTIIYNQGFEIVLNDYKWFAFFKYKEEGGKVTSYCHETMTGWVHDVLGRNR
T6 sequence (P00772 27-266): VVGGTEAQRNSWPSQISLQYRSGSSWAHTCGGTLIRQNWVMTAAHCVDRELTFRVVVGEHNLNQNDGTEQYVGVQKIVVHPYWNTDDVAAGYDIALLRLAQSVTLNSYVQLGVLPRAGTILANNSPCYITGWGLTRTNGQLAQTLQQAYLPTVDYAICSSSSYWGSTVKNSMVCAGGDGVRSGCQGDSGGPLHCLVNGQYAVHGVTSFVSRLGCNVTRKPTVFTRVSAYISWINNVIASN

As to `CC1=C(C(=O)OC(c2ccccc2)c2ccccc2)N2C(=O)[C@H](Br)[C@H]2S(=O)(=O)C12CC2(c1ccc(Cl)cc1)c1ccc(Cl)cc1` (single isomer, unassigned) [Example 12, Benzhydryl 7α-bromo-2-spiro [2',2'-(4',4'-dichloro)diphenyl]cyclopropyl-3-methyl-3-cephem-4-carboxylate-1,1-dioxide], the IC50 in experiment [1] is 55.3 µM; in experiment [2] (setting [8]), 46.2 µM; in experiment [3], 55.3 µM; in experiment [4] it was 55.3 µM.

Take `CCOC(=O)C1CC12C(C)=C(C(=O)OC(c1ccccc1)c1ccccc1)N1C(=O)[C@H](Br)[C@H]1S2(=O)=O` (stereo partly drawn) [Example 13 (1), Benzhydryl 7α-bromo-2-spiro(2'-ethoxycarbonyl)cyclo propyl-3-methyl-3-cephem-4-carboxylate-1,1-dioxide]: the IC50 in experiment [1], in experiment [3] and in experiment [4] was 40 µM in each case.

As for `CO[C@H]1C(=O)N2C(C(=O)OC(c3ccccc3)c3ccccc3)=C(C)C3(CC3(c3ccccc3)c3ccccc3)S(=O)(=O)[C@H]12` (stereo partly drawn) [Example 9, Benzhydryl 7α-methoxy-2-spiro (2',2'-diphenyl) cyclopropyl-3-methyl-3-cephem-4-carboxylate-1,1-dioxide], the IC50 in experiment [5] was 10 µM; in experiment [1], 10 µM; in experiment [2], 10 µM; in experiment [6] (porcine pancreatic elastase 240 nM, pH 8.9, 30° C., 10 minute preincubation, read-out: PPE IC50 (converted)), 0.0578 µM; in experiment [3] it was 10 µM; in experiment [4] it was 10 µM.

`CO[C@H]1C(=O)N2C(C(=O)OCC(Cl)(Cl)Cl)=C(C)C3(CC3(c3ccccc3)c3ccccc3)S(=O)(=O)[C@H]12` (stereo partly drawn) [Example 8, 2,2,2-Trichloroethyl-7α-methoxy-2-spiro(2',2'-diphenyl) cyclo-propyl-3-methyl-3-cephem-4-carboxylate-1,1-dioxide]: the IC50 in experiment [1], in experiment [2], in experiment [3] and in experiment [4] was 9.98 µM throughout.

As for `CC1=C(C(=O)OC(c2ccccc2)c2ccccc2)N2C(=O)[C@H](Cl)[C@H]2S(=O)(=O)C12CC2(c1ccccc1)c1ccccc1` (single isomer, unassigned) [Example 1, Benzhydryl 7α-chloro-2-spiro(2',2'-diphenyl) cyclopropyl-3-methyl-3-cephem-4-carboxylate-1,1-dioxide], the IC50 in experiment [5] (setting [9]) was 60 µM; in experiment [1] (setting [10]), 60 µM; in experiment [2] (setting [8]), 17.2 µM; in experiment [7], 20 µM; in experiment [3] (setting [11]) it was 60 µM; in experiment [4], 40 µM.

Consider `CC1=C(C(=O)OC(c2ccccc2)c2ccccc2)N2C(=O)[C@H](Br)[C@H]2S(=O)(=O)C12CC2(C)c1ccccc1` (stereo partly drawn) [Example 13 (2), Benzhydryl 7α-bromo-2-spiro(2'-phenyl-2'-methyl) cyclopropyl-3-methyl-3-cephem-4-carboxylate-1,1-dioxide], for which the “TRY IC50” value in experiment [5] (trypsin, bovine pancreas, pH 8.8, 22° C., 10 minute preincubation) came to 0.089 µg/mL. For the same compound, the IC50 in experiment [1] was 40 µM; in experiment [2] (setting [8]) it was 50 µM; in experiment [3], 40 µM; in experiment [4], 40 µM.

With `CO[C@H]1C(=O)N2C(C(=O)N3CCCCC3)=C(C)C3(CC3(c3ccccc3)c3ccccc3)S(=O)(=O)[C@H]12` (stereo partly drawn) [Example 11, 7α-Methoxy-2-spiro (2',2'-diphenyl)cyclopropyl-3-methyl-3-cephem-4-piperidine carboxamide-1,1-dioxide], the IC50 is 10 µM in experiment [5] (setting [9]); 10 µM in experiment [1] (setting [10]); 10 µM in experiment [2] (setting [8]); 0.0316 µM in experiment [6]; 10 µM in experiment [3] (setting [11]); 39.9 µM in experiment [4].

`CC1=C(C(=O)OC(c2ccccc2)c2ccccc2)N2C(=O)[C@H](Br)[C@H]2S(=O)(=O)C12CC2(c1ccc(F)cc1)c1ccc(F)cc1` (single isomer, unassigned) [Example 13, Benzhydryl 7α-bromo-2-spiro[2',2'-(4',4'-difluoro)diphenyl] cyclopropyl-3-methyl-3-cephem-4-carboxylate-1,1-dioxide]: the IC50 is 40 µM in experiment [5]; 40 µM in experiment [1]; 50 µM in experiment [2] (setting [8]); 40 µM in experiment [3]; 40 µM in experiment [4].

Take `CC1=C(C(=O)N2CCCC2)N2C(=O)[C@H](Br)[C@H]2S(=O)(=O)C12CC2(c1ccccc1)c1ccccc1` (stereo partly drawn) [Example 6, 7α Bromo-2-spiro(2',2'-diphenyl)cyclopropyl-3-methyl-3-cephem-4-pyrrolidine carboxamide-1,1-dioxide]: the IC50 in experiment [5] is 39 µM; in experiment [1] (setting [10]) it was 9.77 µM; in experiment [2] (setting [8]), 9.77 µM; in experiment [3] (setting [11]), 9.77 µM; in experiment [4] it was 39 µM.
